Reference: US6630485B2, “p38 map kinase inhibitors” (Syntex (U.S.A.) LLC, priority 1997, dated 2003)

Experiments:
[1] = tested on: TNF-α; experiment: Inhibition of LPS-induced TNF-α production in mice, in vivo assay; conditions: female BALB/c mice, dosed orally at 30 mg, 30 min before 20 μg LPS i.p., serum TNF-α after 1.5 h
Protocol: The ability of the compounds of this invention to inhibit the TNF-α release, in vivo, was determined using a minor modification of the methods described in described in Zanetti, G.; Heumann, D., et. al., “Cytokine production after intravenous or peritoneal Gram-negative bacterial challenge in mice,” J. Immunol., 148, 1890, (1992) and Sekut, L., Menius, J. A., et. al., “Evaluation of the significance of elevated levels of systemic and localized tumor necrosis factor in different animal models of inflammation,” J. Lab. Clin. Med., 124, 813, (1994).
Female BALB/c mice weighing 18-21 grams (Charles River, Hollister, Calif.) were acclimated for one week. Groups containing 8 […] each were dosed orally either with the test compounds dissolved in an aqueous vehicle containing 0.9% sodium chloride, 0.5% sodium carboxymethyl-cellulose, 0.4% polysorbate 80, 0.9% benzyl alcohol (CMC vehicle) or only vehicle (control group). After 30 min., the mice were injected intraperitoneally with 20 μg of LPS (Sigma, St. Louis, Mo.). After 1.5 h, the mice were sacrificed by CO2 inhalation and blood was harvested by cardiocentesis. Blood was clarified by centrifugation at 15,600×g for 5 min., and sera were transferred to clean tubes and frozen at −20° C. until analyzed for TNF-α by ELISA assay (Biosource International, Camarillo, Calif.) following the manufacturer's protocol.
The TNF-α inhibitory activity of test materials, i.e., the measure of the TNF-α content in the test group relative to the vehicle treated group (control group) at 30 mg was: […]

[2] = tested on: TNF-α; experiment: Inhibition of LPS-induced TNF-α production in THP1 cells, in vitro assay (ELISA); assay type: cell-based; conditions: Homo sapiens; THP-1 cells, LPS 0.5 μg/ml, 2 h; read-out: IC50 (half-maximal reduction in 450 nm absorbance, TNF-α ELISA)
Protocol: The ability of the compounds of this invention to inhibit the TNF-α release was determined using a minor modification of the methods described in described in Blifeld, C. et al. Transplantation, Vol. 51(2), 498-503, (1991).
THP-1 cells were suspended in culture medium [RPMI (Gibco-BRL, Gailthersburg, Md.) containing 15% fetal bovine serum, 0.02 mM 2-mercaptoethanol], at a concentration of 2.5×10^6 cells/ml and then plated in 96 well plate (0.2 ml aliquots in each well). Test compounds were dissolved DMSO and then diluted with the culture medium such that the final DMSO concentration was 5%. 20 μl aliquots of test solution or only medium with DMSO (control) were added to each well. The cells were incubated for 30 min., at 37° C. LPS (Sigma, St. Louis, Mo.) was added to the wells at a final concentration of 0.5 μg/ml, and cells were incubated for an additional 2 h. At the end of the incubation period, culture supernatants were collected and the amount of TNF-α present was determined using an ELISA assay as described below.
The amount of human TNF-α present was determined by a specific trapping ELISA assay using two anti-TNF-α antibodies (2TNF-H22 and 2TNF-H34) described in Reimund, J. M., et al. GUT Vol. 39(5), 684-689 (1996).
Polystyrene 96-well plates were coated with 50 μl per well of antibody 2TNF-H22 in PBS (10 μg/ml) and incubated in a humidified chamber at 4° C. overnight. The plates were washed with PBS and then blocked with 5% nonfat-dry milk in PBS for 1 hour at room temperature and washed with 0.1% BSA (bovine serum albumin) in PBS.
TNF standards were prepared from a stock solution of human recombinant TNF-α (R&D Systems, Minneapolis, Minn.). The concentration of the standards in the assay began at 10 ng/ml followed by 6 half log serial dilution's.
25 μl aliquots of the above culture supernatants or TNF standards or only medium (control) were mixed with 25 μl aliquots of biotinylated monoclonal antibody 2TNF-H34 (2 μg/ml in PBS containing 0.1% BSA) and then added to each well. The samples were incubated for 2 h at room temperature with gentle shaking and then washed 3 times with 0.1% BSA in PBS. 50 μl of peroxidase-streptavidin (Zymed, S. San Francisco, Calif.) solution containing 0.416 μg/ml of peroxidase-streptavidin and 0.1% BSA in PBS was added to each well. The samples were incubated for an additional 1 h at room temperature and then washed 4 times with 0.1% BSA in PBS. 50 μl of O-phenylenediamine solution (1 μg/ml O-phenylene-diamine and 0.03% hydrogen peroxide in 0.2M citrate buffer pH 4.5) was added to each well and the samples were incubated in the dark for 30 min., at room temperature. Optical density of the sample and the reference were read at 450 nm and 650 nm, respectively. TNF-α levels were determined from a graph relating the optical density at 450 nm to the concentration used.
The IC50 value was defined as the concentration of the test compound corresponding to half-maximal reduction in 450 nm absorbance.

[3] = target: T1, p38 MAP kinase (Homo sapiens, UniProt Q16539); experiment: Inhibition of p-38 (MAP) kinase, in vitro assay (33P transfer from γ-33P-ATP to Myelin Basic Protein); assay type: biochemical; conditions: phosphorylated recombinant p38 MAP kinase, MBP substrate, 30° C., read-out: IC50 (concentration causing 50% inhibition of the p-38 enzyme)
T1 construct: made in house; host or cells: E. coli
T1 sequence (Q16539 whole entry): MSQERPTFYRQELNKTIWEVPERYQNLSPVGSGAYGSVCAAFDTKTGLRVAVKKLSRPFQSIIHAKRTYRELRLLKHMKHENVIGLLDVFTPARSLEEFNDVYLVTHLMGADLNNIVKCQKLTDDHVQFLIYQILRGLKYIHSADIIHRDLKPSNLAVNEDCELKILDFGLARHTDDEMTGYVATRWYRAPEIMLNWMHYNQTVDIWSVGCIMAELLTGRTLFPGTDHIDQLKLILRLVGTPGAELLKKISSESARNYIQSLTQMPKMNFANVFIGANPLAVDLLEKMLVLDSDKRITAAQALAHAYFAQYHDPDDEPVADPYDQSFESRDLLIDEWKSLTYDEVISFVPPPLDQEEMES
Protocol: The p-38 MAP kinase inhibitory activity of compounds of this invention in vitro was determined by measuring the transfer of the γ-phosphate from γ-^33P-ATP by p-38 kinase to Myelin Basic Protein (MBP), using the a minor modification of the method described in Ahn, N. G.; et al. J. of Biol. Chem. Vol. 266(7), 4220-4227, (1991)
The phosphorylated form of the recombinant p38 MAP kinase was expressed with SEK-1 and MEKK in E. coli (see, Khokhlatchev, A. et al. J. of Biol. Chem. Vol. 272(17), 11057-11062, (1997) and then purified by affinity chromatography using a Nickel column.
The phosphorylated p38 MAP kinase was diluted in kinase buffer (20 mM 3-(N-morpholino)propanesulfonic acid, pH 7.2, 25 mM β-glycerol phosphate, 5 mM ethylene glycol-bis(beta-aminoethyl ether)-N,N,N′,N′-tetraacetic acid, 1 mM sodium vanadate, 1 mM dithiothreitol, 40 mM magnesium chloride). Test compound dissolved in DMSO or only DMSO (control) was added and the samples were incubated for 10 min. at 30° C. The kinase reaction was initiated by the addition of a substrate cocktail containing MBP and γ-^33P-ATP. After incubating for an additional 20 min. at 30° C., the reaction was terminated by adding 0.75% phosphoric acid. The phosphorylated MBP was then separated from the residual γ-^33P-ATP using a phosphocellulose membrane (Millipore, Bedfrod, Mass.) and quantitated using a scintillation counter (Packard, Meriden, Conn.).
The p-38 inhibitory activities (expressed as IC50, the concentration causing 50% inhibition of the p-38 enzyme being assayed) of some compounds of the invention is: […]

Structure (SMILES) | melting point | IC50 [2] | IC50 [3] | % Inhibition (TNF-α content in test group relative to vehicle treated group) [1]
Fc1ccc(-c2c(-c3ccncc3)n(OCCN3CCCCC3)c3cccnc23)cc1 [compound 4, 3-(4-Fluorophenyl)-1-[2-(piperidin-1-yl)ethoxy]-2-(pyridin-4-yl)-1H-pyrrolo[3,2-b]pyridine] | 95.9 to 98.7 °C |  |  | 
Fc1ccc(-c2c(-c3ccncc3)n(CCN3CCOCC3)c3cccnc23)cc1 [compound 8, 3-(4-Fluorophenyl)-2-(pyridin-4-yl)-1-[2-(morpholin-4-yl)ethyl]-1H-pyrrolo[3,2-b]-pyridine] | 171.2 to 173 °C |  |  | 
N#CCCCn1c(-c2ccncc2)c(-c2ccc(F)cc2)c2nccnc21 [compound 108] |  | 8830 nM | 747 nM | 
Fc1ccc(-c2c(-c3ccncc3)n(OCCN3CCOCC3)c3cccnc23)cc1 [compound 3, 3-(4-Fluorophenyl)-1-[2-(morpholin-4-yl)ethoxy]-2-(pyridin-4-yl)-1H-pyrrolo[3,2-b]pyridine] | 139 to 141 °C |  | 221 nM | 56%
Fc1ccc(-c2c(-c3ccncc3)n(CCN3CCCCC3)c3cccnc23)cc1 [compound 9, 3-(4-Fluorophenyl)-1-[2-(piperidin-1-yl)ethyl]-2-(pyridin-4-yl)-1H-pyrrolo[3,2-b]pyridine] | 148.1 to 153.3 °C | 300 nM |  | 
OCCNc1cc(-c2[nH]c3nccnc3c2-c2ccc(F)cc2)ccn1 [compound 112] |  | 241 nM | 34.4 nM | 
Fc1ccc(-c2c(-c3ccncc3)n(OCCN3CCCC3)c3cccnc23)cc1 [compound 5, 3-(4-fluorophenyl)-2-(pyridin-4-yl)-1-[2-(pyrrolidin-1-yl)ethoxy]-1H-pyrrolo[3,2-b]pyridine] | 123 to 129 °C | 120 nM | 246 nM | 

The next lines start with results.

melting point | IC50 [2] | IC50 [3] | Structure (SMILES) | % Inhibition (TNF-α content in test group relative to vehicle treated group) [1]
256 to 257 °C |  |  | Fc1ccc(-c2c(-c3ccncc3)[nH]c3ccncc23)cc1 [compound 105, 3-(4-Fluorophenyl)-2-(pyridin-4-yl)-1H-pyrrolo[3,2-c]pyridine] | 
> 285 °C |  |  | Fc1ccc(-c2c(-c3ccncc3)[nH]c3cccnc23)cc1 [compound 6, 3-(4-Fluorophenyl)-2-(pyridin-4-yl)-1H-pyrrolo[3,2-b]pyridine] | 68%
252.9 to 253.7 °C |  |  | Nc1nccc(-c2oc3cccnc3c2-c2ccc(F)cc2)n1 [compound 103, 2-(2-Aminopyrimidin-4-yl)-3-(4-fluorophenyl)-furo[3,2-b]pyridine] | 
 | 1100 nM | 120 nM | Fc1ccc(-c2c(-c3ccncc3)[nH]c3nccnc23)cc1 [compound 106, 7-(4-Fluorophenyl)-6-(pyridin-4-yl)-5H-pyrrolo[2,3-b]pyrazine] | 
141 to 143 °C |  | 85.5 nM | Fc1ccc(-c2c(-c3ccncc3)oc3cccnc23)cc1 [compound 101, 3-(4-Fluorophenyl)-2-(pyridin-4-yl)-furo[3,2-b]pyridine] | 86%
225 to 228 °C |  |  | On1c(-c2ccncc2)c(-c2ccc(F)cc2)c2ncccc21 [compound 1, 3-(4-Fluorophenyl)-1-hydroxy-2-(pyridin-4-yl)-1H-pyrrolo[3,2-b]pyridine] | 
224.8 to 225.2 °C |  |  | Fc1ccc(-c2c(-c3ccnc(Cl)n3)oc3cccnc23)cc1 [compound 102, 2-(2-Chloropyrimidin-4-yl)-3-(4-fluorophenyl)-furo[3,2-b]pyridine] | 
168 to 171.5 °C | 460 nM | 68 nM | COn1c(-c2ccncc2)c(-c2ccc(F)cc2)c2ncccc21 [compound 2, 3-(4-Fluorophenyl)-1-methoxy-2-(pyridin-4-yl)-1H-pyrrolo[3,2-b]pyridine] | 75%
204 to 206 °C |  |  | CCn1c(-c2ccncc2)c(-c2ccc(F)cc2)c2ncccc21 [compound 7, 1-Ethyl-3-(4-fluorophenyl)-2-(pyridin-4-yl)-1H-pyrrolo[3,2-b]pyridine] | 
